We go through 2 compounds from ChEMBL document CHEMBL1150742, “Verrucofortine, a major metabolite of Penicillium verrucosum var. cyclopium, the fungus that produces the mycotoxin verrucosidin” (J Nat Prod, 1988).

Molecules are shown by their SMILES.

Common to all, as to settings: in vivo
The subject of data set [1] is Mus musculus. The experiment in a line: Neurotoxicity in mouse assessed as distress at 160 mg/kg, ip. It counts as toxicity, organism-based. Set-up: dose 160 mg/kg, route intraperitoneal.
The test system of data set [2] is Mus musculus. Nature of the data set: Neurotoxicity in mouse assessed as labored breathing at 160 mg/kg, ip. Further details: dose 160 mg/kg, route intraperitoneal. It counts as toxicity, organism-based.
In data set [3] the test system is Mus musculus. Nature of the data set: Neurotoxicity in mouse assessed as ataxia at 160 mg/kg, ip. It counts as toxicity, organism-based. Set-up: dose 160 mg/kg, route intraperitoneal.
The test system of data set [4] is Mus musculus. Nature of the data set: Neurotoxicity in mouse assessed as tremorgenic activity at 160 mg/kg, ip. It counts as toxicity, organism-based. Further details: dose 160 mg/kg, route intraperitoneal.
Data set [5] in a line: Toxicity in ip dosed mouse. It counts as organism-based.

Take `C=CC(C)(C)[C@@]12C[C@H]3C(=O)N[C@H](CC(C)C)C(=O)N3[C@H]1N(C(C)=O)c1ccccc12` [VERRUCOFORTINE]: the Activity result in the data set with Mus musculus [1], in the data set with Mus musculus [2], with Mus musculus [3] and in the data set on Mus musculus [4] was “Non-toxic” in each case.

A word on the LD50: it is the dose expected to kill half of the subjects tested. A higher LD50 goes with a less toxic substance. For the compound `COc1c(C)c([C@]2(C)O[C@H]2/C(C)=C/C(C)=C/[C@]2(C)O[C@H](C)[C@@]3(C)O[C@H]32)oc(=O)c1C` [VERRUCOSIDIN], in data set [5], the 50% lethal dose (LD50) was 4 mg/kg.
